{"source": "patent US20210290644A1", "about": "“COMPOUNDS AND METHODS FOR TREATING FUNGAL INFECTIONS” (Amplyx Pharmaceuticals, Inc., priority 2018, published 2021)", "key": {"[1]": {"assay": "clinical", "settings": "human, plasma, po, 400 mg", "from_the_text": "(§1) Study #2 of Compound 1 was a Phase 1, double-blind, placebo-controlled, randomized study in healthy volunteers that consisted of a series of single and multiple dose treatments. In the single ascending dose (SAD) phase, subjects in Cohort 1a received a single IV dose in Period A and then rising single oral doses in Periods B to D. Subjects in Cohort 1b received a single oral dose under fed and fasted conditions in Periods E and F. Subjects in Cohorts 2 and 3 received once-daily oral doses for 14 days, as did subjects in Cohort 4 as part of an in vivo screen for drug-drug interaction (DDI) potential.\n(§2) Blood samples for the determination of Compound 1 and Compound 1A plasma concentrations were collected before and at appropriate times during all single and multiple dose administrations of Compound 1. For SAD Cohorts 1a and 1b, urine samples for the determination of Compound 1A were collected through 48 hrs after dosing."}, "[2]": {"assay": "Study #2 Phase 1: effect of food (fed vs fasted) on pharmacokinetics of Compound 1A after 400 mg oral Compound 1;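 also: cohort 1b subjects took one oral dose in both fed and fasted states, across two separate periods (E, F) within the single ascending dose phase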", "settings": "for F: 400 mg oral, ratio of geometric mean AUC(inf) to IV treatment after correction for dose", "from_the_text": "as §1, §2"}, "[3]": {"settings": "human, in vivo", "from_the_text": "(§3) This was a Phase 1, first-in-human, randomized, double-blind, placebo-controlled single ascending dose (SAD) and multiple ascending dose (MAD) escalation study of 120 healthy male and female subjects. The objectives of the study were to evaluate the safety, tolerability, and pharmacokinetics of single and multiple doses of Compound 1 administered by intravenous (IV) infusion.\n(§4) In the single ascending dose (SAD) phase, Cohorts 1 to 6 and 11A to 11D received single doses. For Cohorts 11A to 11D, the infusion time varied from 0.5 to 3 hours to evaluate the relationship between C., and tolerability. In the multiple ascending dose (MAD) phase, Cohorts 7 to 10 received multiple doses over 14 days, and Cohort 12 examined the feasibility of a loading dose regimen.\n(§5) Blood samples for the determination of Compound 1 and Compound 1A plasma concentrations were collected before and at appropriate times during all single- and multiple-dose administrations of Compound 1. For SAD Cohorts 1 to 6, urine samples for the determination of Compound 1A were collected through 48 hrs after dosing.\n(§6) Eighty (80) subjects were enrolled into SAD Cohorts 1 to 6 and 11A to 11D. Within each cohort, six subjects were randomized to Compound 1 and two subjects to placebo. All 60 subjects randomized to Compound 1 completed dosing. Fifty-nine (59) subjects completed the study.\n(§7) Forty (40) subjects were enrolled into MAD Cohorts 7 to 10 and Loading Dose Cohort 12. Within each cohort, six subjects were randomized to Compound 1 and two subjects to placebo.\n(§8) The PK analysis population therefore consisted of 60 subjects in the SAD phase and 28 subjects in the MAD phase."}, "[4]": {"assay": "clinical", "settings": "human, plasma, po", "from_the_text": "In the single ascending dose (SAD) phase, subjects in Cohort 1a received a single IV dose in Period A and then rising single oral doses in Periods B to D. Subjects in Cohort 1b received a single oral dose under fed and fasted conditions in Periods E and F. Subjects in Cohorts 2 and 3 received once-daily oral doses for 14 days, as did subjects in Cohort 4 as part of an in vivo screen for drug-drug interaction (DDI) potential.\nFor SAD Cohorts 1a and 1b, urine samples for the determination of Compound 1A were collected through 48 hrs after dosing.\nForty-six (46) subjects were enrolled into the study, 8 in Cohort 1a, 10 in Cohort 1b, and 8 each in Cohorts 2 and 3."}, "[5]": {"assay": "Study #1 Phase 1: plasma and urine pharmacokinetics of Compound 1 and Compound 1A after IV infusion of Compound 1 (SAD, MAD, loading regimen)", "settings": "both, human", "from_the_text": "as §3, §4, §5, §6, §7, §8"}, "[6]": {"settings": "Cohort 1B, 400 mg oral Compound 1, fed vs fasted"}, "[7]": {"settings": "plasma, 30 mg, Cohort 2: Compound 1 30 mg/3 hr IV, single dose, geometric mean [geometric %CV]"}, "[8]": {"settings": "plasma, 100 mg, Cohort 3: Compound 1 100 mg/3 hr IV, single dose, geometric mean [geometric %CV]"}}, "note": "“And” between values parts separate entries of the source, which are not always exact repeats. Equal values may be shown once. “Also recorded” adds a separate entry of the source."}
{"smiles": "Nc1ncccc1-c1cc(Cc2ccc(COc3ccccn3)cc2)no1", "note": "[Compound 1A]", "values": [{"measurement": "AUC(0-inf)", "setting": "[1]", "result": 177000, "unit": "ng·h/mL"}, {"measurement": "CL/F", "setting": "[1]", "result": 0.418, "unit": "mL/min/kg"}, {"measurement": "Cmax", "setting": "[1]", "result": 4250, "unit": "ng/mL"}, {"measurement": "Vd/F", "setting": "[1]", "result": "161 L and 2.35 L/kg"}, {"measurement": "half-life", "setting": "[1]", "result": 64.7, "unit": "h"}, {"measurement": "effect of high fat/high calorie meal on bioavailability/exposure", "setting": "[2]; 400 mg oral Compound 1", "result": "no significant effect; also recorded: no impact of food"}, {"measurement": "least squares geometric mean ratios (LSGMR) fed/fasted for Cmax and both AUCs", "setting": "[2]; 400 mg oral Compound 1, high fat/high calorie meal", "result": "~106", "unit": "%"}, {"measurement": "Geometric Mean Ratio, AUC(0-t)", "setting": "[2]; [6]", "result": 106.00, "unit": "%"}, {"measurement": "Geometric Mean Ratio, AUC(inf)", "setting": "[2]; [6]", "result": 106.15, "unit": "%"}, {"measurement": "Geometric Mean Ratio, Cmax", "setting": "[2]; [6]", "result": 106.29, "unit": "%"}, {"measurement": "F", "setting": "[2]; Cohort 1B, Fasted", "result": 101.2, "unit": "%"}, {"measurement": "F", "setting": "[2]; Cohort 1B, Fed", "result": 107.4, "unit": "%"}, {"measurement": "AUC(0-t)", "setting": "[2]; human, plasma, po, 400 mg, AUC(0-24), Cohort 1B, 400 mg oral Compound 1, Fed, geometric mean", "result": 43600, "unit": "ng·h/mL"}, {"measurement": "AUC(0-t)", "setting": "[2]; human, plasma, po, 400 mg, AUC(0-t), Cohort 1B, 400 mg oral Compound 1, Fed, geometric mean", "result": 180000, "unit": "ng·h/mL"}, {"measurement": "AUC(0-inf)", "setting": "[2]; human, plasma, po, 400 mg, AUC(inf), Cohort 1B, 400 mg oral Compound 1, Fed, geometric mean", "result": 188000, "unit": "ng·h/mL"}, {"measurement": "CL/F", "setting": "[2]; human, plasma, po, 400 mg, CL/F, Cohort 1B, 400 mg oral Compound 1, Fed, geometric mean", "result": 0.395, "unit": "mL/min/kg"}, {"measurement": "Cmax", "setting": "[2]; human, plasma, po, 400 mg, Cmax, Cohort 1B, 400 mg oral Compound 1, Fed, geometric mean", "result": 4520, "unit": "ng/mL"}, {"measurement": "Tmax", "setting": "[2]; human, plasma, po, 400 mg, Tmax, Cohort 1B, 400 mg oral Compound 1, Fasted, median", "result": 2.5, "unit": "h"}, {"measurement": "Tmax", "setting": "[2]; human, plasma, po, 400 mg, Tmax, Cohort 1B, 400 mg oral Compound 1, Fed, median", "result": 3.75, "unit": "h"}, {"measurement": "Vd/F", "setting": "[2]; human, plasma, po, 400 mg, Vz/F, Cohort 1B, 400 mg oral Compound 1, Fed, geometric mean", "result": "159 L and 2.3 L/kg"}, {"measurement": "Tmax", "setting": "[2]; human, plasma, po, 400 mg, median tmax, 400 mg oral Compound 1, fasted conditions", "result": 2.5, "unit": "h"}, {"measurement": "Tmax", "setting": "[2]; human, plasma, po, 400 mg, median tmax, 400 mg oral Compound 1, fed conditions", "result": 3.75, "unit": "h"}, {"measurement": "half-life", "setting": "[2]; human, plasma, po, 400 mg, t½, Cohort 1B, 400 mg oral Compound 1, Fed, geometric mean", "result": 67.5, "unit": "h"}, {"measurement": "slope of log-log AUC0-24 vs. dose (power model parameter b)", "setting": "[3]; both", "result": "1.015±0.043"}, {"measurement": "slope of log-log steady-state Cmax vs. dose (power model parameter b)", "setting": "[3]; both", "result": "1.039±0.031"}, {"measurement": "CL", "setting": "[3]; both, iv", "result": 0.387, "unit": "mL/min/kg"}, {"measurement": "median accumulation, ratio of AUC0-24 on Day 14 to Day 1", "setting": "[3]; both, iv", "result": 3.27}, {"measurement": "median accumulation, ratio of Cmax on Day 14 to Day 1", "setting": "[3]; both, iv", "result": 1.96}, {"measurement": "slope of log-log AUC(inf) versus dose (power model parameter b)", "setting": "[3]; both, iv", "result": "1.01±0.020"}, {"measurement": "slope of log-log Cmax versus dose (power model parameter b)", "setting": "[3]; both, iv", "result": "0.929±0.021"}, {"measurement": "time at which steady-state is reached", "setting": "[3]; both, iv", "result": "between Day 7 and Day 14"}, {"measurement": "target plasma exposures (AUC0-24) for clinical efficacy against Candida spp., Aspergillus spp., rare molds", "setting": "[3]; iv", "result": "exceeded"}, {"measurement": "AUC(0-inf)", "setting": "[4]; 100 mg", "result": 39600, "unit": "ng·h/mL"}, {"measurement": "CL/F", "setting": "[4]; 100 mg", "result": 0.417, "unit": "mL/min/kg"}, {"measurement": "Cmax", "setting": "[4]; 100 mg", "result": 1300, "unit": "ng/mL"}, {"measurement": "Vd/F", "setting": "[4]; 100 mg", "result": "138 L and 1.78 L/kg"}, {"measurement": "half-life", "setting": "[4]; 100 mg", "result": 49.5, "unit": "h"}, {"measurement": "AUC(0-inf)", "setting": "[4]; 400 mg", "result": 177000, "unit": "ng·h/mL"}, {"measurement": "CL/F", "setting": "[4]; 400 mg", "result": 0.418, "unit": "mL/min/kg"}, {"measurement": "Cmax", "setting": "[4]; 400 mg", "result": 4250, "unit": "ng/mL"}, {"measurement": "Vd/F", "setting": "[4]; 400 mg", "result": "161 L and 2.35 L/kg"}, {"measurement": "half-life", "setting": "[4]; 400 mg", "result": 64.7, "unit": "h"}, {"measurement": "Vd", "setting": "[5]; in vivo, 10 mg", "result": 1.53, "unit": "L/kg"}, {"measurement": "Vd", "setting": "[5]; in vivo, 50 mg", "result": 188, "unit": "L"}, {"measurement": "AUC(0-t)", "setting": "[5]; in vivo, 200 mg", "result": 76000, "unit": "ng·h/mL"}, {"measurement": "AUC(0-t)", "setting": "[5]; plasma, 10 mg, AUC(0-24), Cohort 1: Compound 1 10 mg/3 hr IV, single dose, geometric mean [geometric %CV]", "result": 1540, "unit": "ng·h/mL"}, {"measurement": "AUC(0-t)", "setting": "[5]; plasma, 10 mg, AUC(0-t), Cohort 1: Compound 1 10 mg/3 hr IV, single dose, geometric mean [geometric %CV]", "result": 2380, "unit": "ng·h/mL"}, {"measurement": "AUC(0-inf)", "setting": "[5]; plasma, 10 mg, Cohort 1: Compound 1 10 mg/3 hr IV, single dose, geometric mean [geometric %CV]", "result": 4050, "unit": "ng·h/mL"}, {"measurement": "Tmax", "setting": "[5]; plasma, 10 mg, Cohort 1: Compound 1 10 mg/3 hr IV, single dose, median", "result": 3, "unit": "h"}, {"measurement": "Vd", "setting": "[5]; plasma, 10 mg, Vz, Cohort 1: Compound 1 10 mg/3 hr IV, single dose, geometric mean [geometric %CV]", "result": 107, "unit": "L"}, {"measurement": "AUC(0-t)", "setting": "[5]; plasma, 30 mg, AUC(0-24), Cohort 2: Compound 1 30 mg/3 hr IV, single dose, geometric mean [geometric %CV]", "result": 4320, "unit": "ng·h/mL"}, {"measurement": "AUC(0-t)", "setting": "[5]; plasma, 30 mg, AUC(0-t), Cohort 2: Compound 1 30 mg/3 hr IV, single dose, geometric mean [geometric %CV]", "result": 14100, "unit": "ng·h/mL"}, {"measurement": "AUC(0-inf)", "setting": "[5]; [7]", "result": 16600, "unit": "ng·h/mL"}, {"measurement": "Cmax", "setting": "[5]; [7]", "result": 477, "unit": "ng/mL"}, {"measurement": "Tmax", "setting": "[5]; plasma, 30 mg, Cohort 2: Compound 1 30 mg/3 hr IV, single dose, median", "result": 3, "unit": "h"}, {"measurement": "Vd", "setting": "[5]; plasma, 30 mg, Vz, Cohort 2: Compound 1 30 mg/3 hr IV, single dose, geometric mean [geometric %CV]", "result": "121 L and 1.72 L/kg"}, {"measurement": "AUC(0-t)", "setting": "[5]; plasma, 50 mg, AUC(0-24), Cohort 7: Compound 1 50 mg/3 hr IV QD × 14 days, Day 1, geometric mean", "result": 6390, "unit": "ng·h/mL"}, {"measurement": "AUC(0-t)", "setting": "[5]; plasma, 50 mg, AUC(0-24), Cohort 7: Compound 1 50 mg/3 hr IV QD × 14 days, Day 7, geometric mean", "result": 17600, "unit": "ng·h/mL"}, {"measurement": "AUC(0-t)", "setting": "[5]; plasma, 50 mg, AUC(0-24), Cohort 7: Compound 1 50 mg/3 hr IV QD × 14 days, Day 14, geometric mean", "result": 20300, "unit": "ng·h/mL"}, {"measurement": "Cmax", "setting": "[5]; plasma, 50 mg, Cohort 7: Compound 1 50 mg/3 hr IV QD × 14 days, Day 1, geometric mean", "result": 669, "unit": "ng/mL"}, {"measurement": "Cmax", "setting": "[5]; plasma, 50 mg, Cohort 7: Compound 1 50 mg/3 hr IV QD × 14 days, Day 7, geometric mean", "result": 1090, "unit": "ng/mL"}, {"measurement": "Cmax", "setting": "[5]; plasma, 50 mg, Cohort 7: Compound 1 50 mg/3 hr IV QD × 14 days, Day 14, geometric mean", "result": 1180, "unit": "ng/mL"}, {"measurement": "Tmax", "setting": "[5]; plasma, 50 mg, Cohort 7: Compound 1 50 mg/3 hr IV QD × 14 days, Day 1, median", "result": 3, "unit": "h"}, {"measurement": "Tmax", "setting": "[5]; plasma, 50 mg, Cohort 7: Compound 1 50 mg/3 hr IV QD × 14 days, Day 7, median", "result": 3, "unit": "h"}, {"measurement": "Tmax", "setting": "[5]; plasma, 50 mg, Cohort 7: Compound 1 50 mg/3 hr IV QD × 14 days, Day 14, median", "result": 3, "unit": "h"}, {"measurement": "Vd", "setting": "[5]; plasma, 50 mg, Vz, Cohort 7: Compound 1 50 mg/3 hr IV QD × 14 days, Day 14, geometric mean", "result": 2.44, "unit": "L/kg"}, {"measurement": "AUC(0-t)", "setting": "[5]; plasma, 100 mg, AUC(0-24), Cohort 3: Compound 1 100 mg/3 hr IV, single dose, geometric mean [geometric %CV]", "result": 14400, "unit": "ng·h/mL"}, {"measurement": "AUC(0-t)", "setting": "[5]; plasma, 100 mg, AUC(0-t), Cohort 3: Compound 1 100 mg/3 hr IV, single dose, geometric mean [geometric %CV]", "result": 47400, "unit": "ng·h/mL"}, {"measurement": "AUC(0-inf)", "setting": "[5]; [8]", "result": 50400, "unit": "ng·h/mL"}, {"measurement": "Cmax", "setting": "[5]; [8]", "result": 1440, "unit": "ng/mL"}, {"measurement": "Tmax", "setting": "[5]; plasma, 100 mg, Cohort 3: Compound 1 100 mg/3 hr IV, single dose, median", "result": 3, "unit": "h"}]}
